# Test results: patent EP4782008A1 (priority 2023, dated 2025)
# How the values were obtained:
# [1] = Pharmacokinetics following single oral administration; assay type: in vivo, healthy Chinese subjects; conditions: for AUC(0-inf) / peak plasma drug concentration: empty stomach
# Method: Trial design: single-center, randomized, double-blind, placebo-controlled, dose-escalation, single administration. Number of subjects: Planned enrollment: 52 subjects, Final analysis: 51 subjects.
# • Specifications: 0.5 mg/tablet, 1 mg/tablet, 2 mg/tablet, prepared according to the method of Example 1; • Dose: 0.5 mg, 1 mg, 2 mg, 4 mg, 8 mg, 12 mg. • Administration method: Single-dose, taken with an appropriate amount of water (240 mL).
# Evaluation indicators of pharmacokinetic parameters: Time to peak (Tmax), peak concentration (Cmax), area under the plasma concentration time curve from 0 to t (AUC0-t), area under the plasma concentration time curve from 0 to infinity (AUC0-∞), elimination rate constant (λz), half-life period (t1/2), total clearance/bioavailability (CL/F), apparent volume of distribution/bioavailability (Vd/F).
# Pharmacokinetic analysis: Pharmacokinetic parameters were calculated using the non-compartmental analysis (NCA) and Phoenix WinNonlin 7.0 data analysis software. Descriptive statistical analysis was performed on pharmacokinetic parameters, providing the number of subjects, arithmetic mean, standard deviation, minimum, median, maximum, and coefficient of variation (CV). Tmax was expressed as median (minimum - maximum). AUC and Cmax belong to a log-normal distribution. The geometric mean was also provided. The relationship between administered dose and drug plasma exposure was evaluated by plotting scatter plots of log-transformed pharmacokinetic parameters (AUC and Cmax) in relation to log dose. Furthermore, the Power model method was used to further explore the linear analysis of administered dose and drug plasma exposure.
# A single dose of the tablets of the compound of formula (I) was administered orally to healthy volunteers on empty stomach. […] When the administered doses were 1 mg, 2 mg, 4 mg, 8 mg, and 12 mg, the peak plasma drug concentrations were 1.19 ng/mL, 2.43 ng/mL, 8.61 ng/mL, 16.4 ng/mL, and 23.5 ng/mL, respectively, and the AUC0-∞ were 14.7 h·ng/mL, 29.8 h·ng/mL, 69.4 h·ng/mL, 135 h·ng/mL, and 220 h·ng/mL, respectively. […] Within the dose range of 1 mg-12 mg, Cmax and AUC0-∞ increased with increasing administered dose, and the increase ratio in AUC0-∞ was basically consistent with the dose increase ratio. The inter-individual variability of plasma drug exposure is around 30%.
# [2] = background statement; cited from earlier work
# [3] = background statement; cited from earlier work; remark: listed apart in the source
# hERG = hERG (Homo sapiens, UniProt Q12809); conditions: background statement; cited from earlier work
# Sequence of hERG (Q12809 whole entry): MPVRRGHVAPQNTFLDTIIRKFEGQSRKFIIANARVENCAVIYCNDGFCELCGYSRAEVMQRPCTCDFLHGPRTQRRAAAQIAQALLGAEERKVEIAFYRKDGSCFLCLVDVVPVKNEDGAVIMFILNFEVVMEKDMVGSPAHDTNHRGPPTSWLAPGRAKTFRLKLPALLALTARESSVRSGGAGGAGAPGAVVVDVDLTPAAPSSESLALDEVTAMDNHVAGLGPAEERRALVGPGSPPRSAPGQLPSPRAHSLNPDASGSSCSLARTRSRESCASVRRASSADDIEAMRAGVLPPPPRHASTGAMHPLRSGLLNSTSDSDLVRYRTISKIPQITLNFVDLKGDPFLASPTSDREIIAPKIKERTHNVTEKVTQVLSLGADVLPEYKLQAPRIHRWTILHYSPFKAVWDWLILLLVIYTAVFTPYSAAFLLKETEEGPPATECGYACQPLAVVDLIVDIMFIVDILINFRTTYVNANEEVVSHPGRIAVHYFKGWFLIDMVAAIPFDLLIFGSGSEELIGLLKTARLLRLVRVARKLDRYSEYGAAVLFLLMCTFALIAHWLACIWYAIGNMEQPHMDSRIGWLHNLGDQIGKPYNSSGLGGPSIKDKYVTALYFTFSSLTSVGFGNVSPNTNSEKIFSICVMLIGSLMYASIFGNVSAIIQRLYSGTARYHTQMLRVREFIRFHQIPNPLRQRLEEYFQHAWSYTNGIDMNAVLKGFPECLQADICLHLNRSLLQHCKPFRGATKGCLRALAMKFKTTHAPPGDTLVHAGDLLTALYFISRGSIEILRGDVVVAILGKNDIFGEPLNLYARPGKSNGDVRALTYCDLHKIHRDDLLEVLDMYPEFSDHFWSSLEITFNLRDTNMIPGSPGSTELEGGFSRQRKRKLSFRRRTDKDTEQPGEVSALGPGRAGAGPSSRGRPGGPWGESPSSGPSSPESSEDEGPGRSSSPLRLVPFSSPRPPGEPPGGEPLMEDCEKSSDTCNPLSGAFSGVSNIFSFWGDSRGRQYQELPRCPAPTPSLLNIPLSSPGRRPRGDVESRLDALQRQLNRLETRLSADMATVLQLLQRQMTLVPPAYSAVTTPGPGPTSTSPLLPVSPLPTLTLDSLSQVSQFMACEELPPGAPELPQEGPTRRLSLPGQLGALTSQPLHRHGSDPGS
# [4] = background statement; cited from earlier work; remark: listed apart in the source
smiles,measurement,setting,value
"COc1cc2c(cc1OC)C(=O)C(CC1(F)CCN(Cc3ccccc3F)CC1)C2 (stereo not shown) [compound of formula (I), 2-(4-fluoro-(1-(2-fluorobenzyl))piperidin-4-yl-methyl)-5,6-dimethoxy-2,3-dihydro-1-indanone]",AUC(0-inf),"[1]; human, plasma, single oral dose 1 mg",14.7 ng·h/mL
same,AUC(0-inf),"[1]; human, plasma, single oral dose 2 mg",29.8 ng·h/mL
same,AUC(0-inf),"[1]; human, plasma, single oral dose 4 mg",69.4 ng·h/mL
same,AUC(0-inf),"[1]; human, plasma, single oral dose 8 mg",135 ng·h/mL
same,AUC(0-inf),"[1]; human, plasma, single oral dose 12 mg",220 ng·h/mL
same,half-life,"[1]; human, plasma, single oral dose of tablets on empty stomach, range over dose groups, read-out: mean plasma drug elimination half-life period",14.2 to 32.1 h
same,inter-individual variability of plasma drug exposure,[1]; single oral dose,around 30%
same,peak plasma drug concentration,[1]; single oral dose 1 mg,1.19 ng/mL
same,peak plasma drug concentration,[1]; single oral dose 2 mg,2.43 ng/mL
same,peak plasma drug concentration,[1]; single oral dose 4 mg,8.61 ng/mL
same,peak plasma drug concentration,[1]; single oral dose 8 mg,16.4 ng/mL
same,peak plasma drug concentration,[1]; single oral dose 12 mg,23.5 ng/mL
same,drug concentration in brain tissue relative to the plasma drug concentration,[2],4.4 times
same,genetic toxicity,[3],no
same,hERG toxicity,hERG,no
same,oral bioavailability,[4],high
